What is called AC50 is the concentration giving half of the maximal activity seen. A higher AC50 goes with activity only at high concentration.

Assay [1] has as its target T1, Alpha-1A adrenergic receptor (Homo sapiens, UniProt P35348).
T1 sequence (P35348 whole entry): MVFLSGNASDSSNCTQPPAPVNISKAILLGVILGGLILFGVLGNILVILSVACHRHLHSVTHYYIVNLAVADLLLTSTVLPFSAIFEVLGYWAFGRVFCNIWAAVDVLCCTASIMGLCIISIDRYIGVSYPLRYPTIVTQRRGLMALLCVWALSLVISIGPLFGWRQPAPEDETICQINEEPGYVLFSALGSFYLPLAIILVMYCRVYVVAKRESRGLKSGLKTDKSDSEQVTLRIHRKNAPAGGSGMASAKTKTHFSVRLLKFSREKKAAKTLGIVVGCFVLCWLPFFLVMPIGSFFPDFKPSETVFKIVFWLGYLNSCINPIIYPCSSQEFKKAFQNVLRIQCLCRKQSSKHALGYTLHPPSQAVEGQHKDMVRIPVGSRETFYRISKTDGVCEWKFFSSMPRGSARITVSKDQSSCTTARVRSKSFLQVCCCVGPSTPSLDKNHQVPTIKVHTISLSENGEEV

In assay [2] the target is Neuronal acetylcholine receptor subunit alpha-4 (Homo sapiens, UniProt P43681).
Assay [3] concerns the target Cannabinoid receptor 1 (Homo sapiens, UniProt P21554).
Assay [4] has as its target T2, 5-hydroxytryptamine receptor 1A (Homo sapiens, UniProt P08908).
T2 sequence (P08908 whole entry): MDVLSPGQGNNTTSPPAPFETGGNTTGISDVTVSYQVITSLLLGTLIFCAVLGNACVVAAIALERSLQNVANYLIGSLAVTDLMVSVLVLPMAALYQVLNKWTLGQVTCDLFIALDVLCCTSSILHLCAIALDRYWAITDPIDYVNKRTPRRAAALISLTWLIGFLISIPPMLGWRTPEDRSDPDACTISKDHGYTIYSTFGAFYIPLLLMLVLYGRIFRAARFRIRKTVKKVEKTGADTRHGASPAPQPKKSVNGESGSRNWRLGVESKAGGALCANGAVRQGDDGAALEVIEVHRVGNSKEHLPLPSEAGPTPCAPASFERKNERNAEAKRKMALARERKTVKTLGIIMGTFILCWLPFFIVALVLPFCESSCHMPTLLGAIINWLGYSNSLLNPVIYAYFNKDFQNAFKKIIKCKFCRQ
Type of assay: functional, cell-based.

Assay [5] addresses T3, Neuropeptide Y receptor type 1 (Homo sapiens, UniProt P25929).
T3 sequence (P25929 whole entry): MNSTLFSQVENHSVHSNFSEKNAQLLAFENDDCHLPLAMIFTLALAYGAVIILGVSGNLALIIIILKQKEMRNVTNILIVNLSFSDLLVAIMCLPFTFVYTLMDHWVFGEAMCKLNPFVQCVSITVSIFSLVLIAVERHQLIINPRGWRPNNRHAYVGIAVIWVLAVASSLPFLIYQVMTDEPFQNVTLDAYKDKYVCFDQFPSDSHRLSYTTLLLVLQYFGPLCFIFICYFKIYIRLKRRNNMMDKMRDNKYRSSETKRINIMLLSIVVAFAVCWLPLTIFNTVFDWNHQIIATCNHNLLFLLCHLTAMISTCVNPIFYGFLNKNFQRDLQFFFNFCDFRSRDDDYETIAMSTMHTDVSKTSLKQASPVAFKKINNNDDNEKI

Assay [6] deals with Kappa-type opioid receptor (Homo sapiens, UniProt P41145).
The target of assay [7] is Sodium-dependent dopamine transporter (Homo sapiens, UniProt Q01959).
Assay [8] has as its target T4, Mu-type opioid receptor (Homo sapiens, UniProt P35372).
For assay [9], the target named is T5, Amine oxidase [flavin-containing] A (Homo sapiens, UniProt P21397).
T5 sequence (P21397 whole entry): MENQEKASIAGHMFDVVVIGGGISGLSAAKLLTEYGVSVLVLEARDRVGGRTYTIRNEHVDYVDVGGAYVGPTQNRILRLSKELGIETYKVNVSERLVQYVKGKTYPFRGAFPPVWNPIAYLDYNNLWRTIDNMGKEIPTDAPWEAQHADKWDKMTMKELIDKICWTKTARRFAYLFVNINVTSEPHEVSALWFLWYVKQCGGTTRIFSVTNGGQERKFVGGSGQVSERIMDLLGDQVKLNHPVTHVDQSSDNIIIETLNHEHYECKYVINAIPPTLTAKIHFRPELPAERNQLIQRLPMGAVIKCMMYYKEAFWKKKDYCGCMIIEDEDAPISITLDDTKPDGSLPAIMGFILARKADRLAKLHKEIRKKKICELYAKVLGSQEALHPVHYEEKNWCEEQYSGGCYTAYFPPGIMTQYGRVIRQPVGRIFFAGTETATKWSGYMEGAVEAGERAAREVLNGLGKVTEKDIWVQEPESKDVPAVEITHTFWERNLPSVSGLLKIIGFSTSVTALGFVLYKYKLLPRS
Type of assay: functional.

In assay [10] the target is T4, Mu-type opioid receptor. Briefly: biochemical. The format is functional.
The target in assay [11] is T1, Alpha-1A adrenergic receptor. The format is functional, cell-based.
Assay [12] has as its target T6, Endothelin-1 receptor (Homo sapiens, UniProt P25101).
T6 sequence (P25101 whole entry): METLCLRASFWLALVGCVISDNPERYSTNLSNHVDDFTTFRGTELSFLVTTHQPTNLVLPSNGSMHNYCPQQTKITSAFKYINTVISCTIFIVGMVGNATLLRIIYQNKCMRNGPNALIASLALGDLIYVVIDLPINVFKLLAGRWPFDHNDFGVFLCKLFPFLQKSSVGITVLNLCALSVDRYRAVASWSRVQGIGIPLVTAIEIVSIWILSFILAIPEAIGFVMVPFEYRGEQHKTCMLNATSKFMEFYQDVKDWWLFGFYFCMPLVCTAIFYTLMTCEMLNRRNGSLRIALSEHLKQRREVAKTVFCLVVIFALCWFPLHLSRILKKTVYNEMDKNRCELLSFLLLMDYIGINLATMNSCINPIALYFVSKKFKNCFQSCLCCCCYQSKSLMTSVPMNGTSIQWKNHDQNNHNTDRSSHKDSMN

The target in assay [13] is T1, Alpha-1A adrenergic receptor. The format is functional, cell-based. The source holds these as a separate data set.
The target of assay [14] is Histamine H1 receptor (Homo sapiens, UniProt P35367).

The structures appear in SMILES notation. Bounds are passed on as bounds.
Note: assay procedure not described here.

Sequence of Kappa-type opioid receptor (P41145 whole entry): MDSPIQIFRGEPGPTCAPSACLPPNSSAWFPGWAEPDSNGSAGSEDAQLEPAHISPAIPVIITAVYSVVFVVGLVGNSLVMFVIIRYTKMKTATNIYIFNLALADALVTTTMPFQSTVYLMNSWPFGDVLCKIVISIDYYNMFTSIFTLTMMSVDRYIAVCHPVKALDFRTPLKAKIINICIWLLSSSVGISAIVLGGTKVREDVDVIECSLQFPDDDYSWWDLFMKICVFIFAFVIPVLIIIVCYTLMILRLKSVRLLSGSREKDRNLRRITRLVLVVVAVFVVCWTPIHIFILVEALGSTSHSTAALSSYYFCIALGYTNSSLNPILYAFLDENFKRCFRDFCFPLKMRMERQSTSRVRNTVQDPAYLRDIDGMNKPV
Sequence of Cannabinoid receptor 1 (P21554 whole entry): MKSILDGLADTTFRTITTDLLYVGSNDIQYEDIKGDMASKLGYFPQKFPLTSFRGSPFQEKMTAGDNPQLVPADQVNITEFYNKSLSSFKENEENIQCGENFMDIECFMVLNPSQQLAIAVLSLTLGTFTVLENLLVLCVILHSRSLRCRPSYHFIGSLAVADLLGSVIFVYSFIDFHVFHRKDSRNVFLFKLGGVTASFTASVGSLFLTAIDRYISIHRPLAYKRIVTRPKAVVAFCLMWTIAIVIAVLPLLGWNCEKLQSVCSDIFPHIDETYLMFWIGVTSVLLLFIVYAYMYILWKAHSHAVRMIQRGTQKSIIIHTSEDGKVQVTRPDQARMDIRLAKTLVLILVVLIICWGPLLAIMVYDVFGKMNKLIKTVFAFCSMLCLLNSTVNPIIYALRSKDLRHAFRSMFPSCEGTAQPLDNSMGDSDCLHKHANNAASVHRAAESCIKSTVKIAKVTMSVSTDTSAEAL
Sequence of Neuronal acetylcholine receptor subunit alpha-4 (P43681 whole entry): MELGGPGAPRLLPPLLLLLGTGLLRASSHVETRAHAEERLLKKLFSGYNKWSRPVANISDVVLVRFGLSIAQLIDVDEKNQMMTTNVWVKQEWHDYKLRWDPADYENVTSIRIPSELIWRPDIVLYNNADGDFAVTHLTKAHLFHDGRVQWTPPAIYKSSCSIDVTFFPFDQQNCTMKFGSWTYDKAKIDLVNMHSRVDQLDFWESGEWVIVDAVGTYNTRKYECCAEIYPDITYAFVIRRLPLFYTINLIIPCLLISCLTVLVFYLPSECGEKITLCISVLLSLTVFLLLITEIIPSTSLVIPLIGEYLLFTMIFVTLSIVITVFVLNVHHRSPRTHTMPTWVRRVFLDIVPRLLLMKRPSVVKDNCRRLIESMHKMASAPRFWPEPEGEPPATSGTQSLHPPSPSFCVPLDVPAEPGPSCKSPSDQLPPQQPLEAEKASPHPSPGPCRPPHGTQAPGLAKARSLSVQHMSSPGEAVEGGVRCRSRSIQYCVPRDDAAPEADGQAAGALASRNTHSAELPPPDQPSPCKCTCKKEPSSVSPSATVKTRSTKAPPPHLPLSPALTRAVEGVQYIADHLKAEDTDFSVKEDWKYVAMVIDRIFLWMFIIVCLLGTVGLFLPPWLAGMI
Sequence of Sodium-dependent dopamine transporter (Q01959 whole entry): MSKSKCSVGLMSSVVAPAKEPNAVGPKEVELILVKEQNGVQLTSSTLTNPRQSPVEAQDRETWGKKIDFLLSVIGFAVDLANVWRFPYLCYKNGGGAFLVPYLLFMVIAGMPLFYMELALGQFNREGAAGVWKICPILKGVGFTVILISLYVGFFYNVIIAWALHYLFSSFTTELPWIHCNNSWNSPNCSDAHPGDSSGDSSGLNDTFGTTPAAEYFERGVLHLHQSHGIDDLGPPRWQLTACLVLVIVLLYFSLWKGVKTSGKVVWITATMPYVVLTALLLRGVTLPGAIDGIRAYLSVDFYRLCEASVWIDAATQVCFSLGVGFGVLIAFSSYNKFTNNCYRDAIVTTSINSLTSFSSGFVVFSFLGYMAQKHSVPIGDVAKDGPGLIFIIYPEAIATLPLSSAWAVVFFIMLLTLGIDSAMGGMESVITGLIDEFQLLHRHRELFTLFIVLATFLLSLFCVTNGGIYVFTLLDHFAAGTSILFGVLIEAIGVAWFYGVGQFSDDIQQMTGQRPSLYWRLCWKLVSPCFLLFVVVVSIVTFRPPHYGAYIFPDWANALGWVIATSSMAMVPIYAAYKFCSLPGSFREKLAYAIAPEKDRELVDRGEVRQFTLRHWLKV
T4 sequence (P35372 whole entry): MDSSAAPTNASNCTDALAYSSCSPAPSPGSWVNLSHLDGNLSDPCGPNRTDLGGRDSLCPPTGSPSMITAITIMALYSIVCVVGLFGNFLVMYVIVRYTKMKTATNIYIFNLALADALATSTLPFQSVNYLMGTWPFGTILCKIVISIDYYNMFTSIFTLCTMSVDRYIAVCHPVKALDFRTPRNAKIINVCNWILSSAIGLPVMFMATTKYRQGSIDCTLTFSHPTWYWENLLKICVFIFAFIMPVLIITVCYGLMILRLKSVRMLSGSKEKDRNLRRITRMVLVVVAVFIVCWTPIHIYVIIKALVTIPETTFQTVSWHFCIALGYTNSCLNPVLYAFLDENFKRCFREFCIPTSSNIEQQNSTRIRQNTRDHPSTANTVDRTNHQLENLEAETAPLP
Sequence of Histamine H1 receptor (P35367 whole entry): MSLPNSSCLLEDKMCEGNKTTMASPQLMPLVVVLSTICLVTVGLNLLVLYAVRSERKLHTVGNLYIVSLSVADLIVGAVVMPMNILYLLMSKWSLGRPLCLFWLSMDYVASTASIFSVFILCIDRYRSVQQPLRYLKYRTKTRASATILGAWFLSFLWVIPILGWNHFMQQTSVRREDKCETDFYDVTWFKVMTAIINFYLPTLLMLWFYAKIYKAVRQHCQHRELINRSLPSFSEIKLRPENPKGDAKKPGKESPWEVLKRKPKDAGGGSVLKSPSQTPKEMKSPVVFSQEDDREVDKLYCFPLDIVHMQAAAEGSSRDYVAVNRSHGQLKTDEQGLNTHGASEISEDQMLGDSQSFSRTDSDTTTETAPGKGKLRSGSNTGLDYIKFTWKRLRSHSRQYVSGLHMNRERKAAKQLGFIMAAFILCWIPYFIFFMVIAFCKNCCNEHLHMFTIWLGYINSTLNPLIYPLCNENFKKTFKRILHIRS

Take `CCC1(CCC(C)C)C(=O)NC(=O)NC1=O` [AMOBARBITAL]: the AC50 in assay [1], in assay [2], in assay [3], in assay [4], in assay [5] and in [6] was > 10 µM throughout. Further, the AC50 in assay [7] is > 10 µM; in [8], > 30 µM; in [9] it was > 10 µM.

As to `O=C(O)CCNC(=O)c1ccc(/N=N/c2ccc(O)c(C(=O)O)c2)cc1` [BALSALAZIDE], the AC50 in assay [1], in assay [2], in assay [3], in assay [4], in [5] and in [6] was > 30 µM each time. For the same molecule, the concentration at half-maximal activity (AC50) in [10], in assay [7] and in assay [9] was > 30 µM throughout.

Turning to `CCN1CC(CCN2CCOCC2)C(c2ccccc2)(c2ccccc2)C1=O` (stereo not drawn) [DOXAPRAM], the AC50 in [11], in assay [2], in [12], in [4], in assay [5] and in assay [6] was > 30 µM in each case. Further, the half-maximal activity concentration (AC50) in [10], in [7], in [9] and in assay [13] was > 30 µM throughout.

For the molecule `CC(C)NC[C@H](O)COc1ccc(CC(N)=O)cc1` [ESATENOLOL], the AC50 in assay [1] is > 10 µM; in assay [12], > 30 µM; in [4], > 10 µM; in assay [5], > 30 µM; in assay [6] it was > 10 µM; in [9], > 10 µM.

Consider `Fc1ccc([C@@H]2CCNC[C@H]2COc2ccc3c(c2)OCO3)cc1` [PAROXETINE], for which the AC50 in [2] is > 10 µM; in [3], 2.72 µM; in [12] it was > 30 µM; in [4], > 10 µM; in [5], > 30 µM; in assay [9] it was > 10 µM.

As for `NC(=O)NC(=O)Cc1ccccc1` [PHENACEMIDE], the AC50 in assay [1], in assay [2], in assay [3], in [4], in assay [5] and in assay [6] was > 10 µM throughout. Further, the AC50 was > 10 µM in [7], > 30 µM in [8] and > 10 µM in assay [9].

Regarding `O=c1c(O)c(-c2ccc(O)c(O)c2)oc2cc(O)cc(O)c12` [QUERCETIN], the AC50 was > 10 µM in assay [2]; > 30 µM in assay [12]; > 10 µM in assay [14]; > 10 µM in assay [4]; > 30 µM in assay [5]; 12.7 µM in [6]. Moreover, the activity in assay [9] was half-maximal at 5.6 µM (AC50).

In the case of `COc1cc(C(=O)NC2CCCNC2)cc(OC)c1OC` (stereo not drawn) [TROXIPIDE], the AC50 in assay [11] is > 30 µM; in [2], > 30 µM; in assay [12], > 30 µM; in assay [5], > 30 µM; in assay [6], 16 µM; in [10], > 30 µM. Besides, the AC50 in assay [7], in [9] and in assay [13] was > 30 µM each time.

`CCCCCCCC(=O)CC[C@@H]1[C@@H](C/C=C\CCCC(=O)OC(C)C)[C@@H](O)C[C@H]1O` [UNOPROSTONE ISOPROPYL]: the results for the AC50 in assay [14], in [7] and in assay [9] were > 30 µM, 7.2 µM and > 30 µM, respectively.

As for `CC(c1cc2ccccc2s1)N(O)C(N)=O` (stereo not drawn) [ZILEUTON], the AC50 is > 30 µM in [11]; > 10 µM in [1]; > 10 µM in [2]; > 10 µM in assay [3]; > 10 µM in assay [5]; > 10 µM in [6]. Also, the AC50 in assay [7] is > 10 µM; in [8] it was > 30 µM; in [9] it was > 10 µM; in assay [13], > 30 µM.

The record behind these values is ChEMBL document CHEMBL5291721, “A preclinical secondary pharmacology resource illuminates target-adverse drug reaction associations of marketed drugs” (Nat Commun, 2023).
